The text below walks through data of patent US5716934A, “Eck receptor ligands” (Amgen Inc., priority 1995, dated 1998).

For the assay, the system named is granulation tissue in subcutaneously implanted wound chambers. The assay can be described thus: Rat wound chamber assay (granulation tissue formation). It is filed as in vivo. As to conditions: for DNA / HYDROXY-PROLINE / TOTAL GYLCOSAMINO-GLYCANS / TOTAL PROTEIN / WET WEIGHT: harvest day 12, mean ± SEM; for increase in hydroxyproline: not statistically significant. The protocol: Male Sprague-Dawley specific pathogen free rats (300-350 g; Charles River Breeding Laboratories, Inc.) were used for this study. Rats were anesthetized with sodium pentobarbital (50 mg/kg body weight) by intraperitoneal injection. Using aseptic surgical technique, a 3 cm midline incision was made on the dorsal surface of the rat. A single pocket was formed under the panniculus carnosis by blunt dissection on one side of the animal. A 3 cm long×1 cm diameter sterile stainless steel wire mesh cylinder was then inserted subcutaneously. The wound chambers used were similar to those described by Schilling et. al. (Surgery 46, 702-710 (1959)) and utilized by Hunt et. al. (Am. J. Surg. 114, 302-307 (1967)) as wound healing models. The incision was closed with wound clips. The rats survived the operation well with no evidence of postoperative discomfort. Beginning 3 days after wound chamber implantation, the rats were randomly divided into 5 groups. At this time daily injections of 1) 10 μg CHO-derived EBP, 2) 1 μg CHO-derived EBP, 3) 8 μg E. coli derived EBP, 4) 5 μg recombinant platelet derived growth factor (PDGF), or 5) 0.1 ml sterile PBS and 1 mM CHAPS were begun and continued for a total of 9 days. The injections were made directly into the wound chamber through a silicone septum at the outer edge of the chamber. Twelve days after chamber implantation, the rats were sacrificed by CO2 asphyxiation. Immediately after sacrifice, the chambers were removed surgically and carefully opened. The enclosed granulation tissue was then weighed, and stored at -70° C. for future processing.
Granulation tissue samples were thawed and homogenized with a Polytron homogenizer in 2 ml of ice-cold distilled water for approximately 1 minute. Next, 2 ml of ice-cold 10% trichloroacetic acid was added to the homogenate and incubated at 4° C. for 1 hour. The TCA-precipitated samples were centrifuged (500 g, 10 minutes) at 4° C., washed once with 2 ml of ice-cold 5% TCA, and finally washed with 2 ml of ice-cold 95% ethanol containing 50 mM sodium acetate. Samples were defatted twice with 2 ml of ethanol:ether (3:1, v/v) at 20° C. After each defatting procedure, samples were centrifuged (500×g, 10 minutes) and the supernate discarded. The pellet was then dissolved in 1N sodium hydroxide and brought up to a volume of 10 ml.
Total protein was determined by taking an aliquot of the solubilized granulation tissue and assaying the sample according to the method of Bradford (Anal. Biochem. 72, 248-251 (1976)) Bovine serum albumin (Sigma Chemical Co., St. Louis, Mo.) was used for a protein standard curve.
Total DNA content was determined as deoxy-ribose by the colorimetric method of Burton (Biochem. J. 62, 315 (1956)). Briefly, a 1 ml aliquot of the solubilized sample (in 1N NaOH) was neutralized with the addition of 0.5 ml of 2N HCl. A 1 ml aliquot of the neutralized solution was extracted in 10% perchloric acid at 90° C. for 15 minutes. A 1 ml portion of the final extract was added to 2 ml activated diphenylamine (Sigma Chemical, St. Louis, Mo.) reagent and absorbance at 600 nm was measured after overnight incubation at room temperature. Hydrolyzed calf thymus DNA (Sigma) was used to construct the standard curve. The DNA content was measured as a rough index of the number of cells in the wound chamber, with the realization that cell type and cell cycle status also influence DNA content.
Total glycosaminoglycans (GAGs) were determined using chondroitin sulfate as a standard. A spectrophotometric assay for GAGs was run utilizing a change in absorption spectrum of the dye 1,9- dimethyl methylene blue (Farndale et al. Conn. Tiss. Res. 9, 247-248 (1982)).
Total collagen content was determined as hydroxyproline (an index of collagen content) after hydrolysis of the solubilized granulation tissue in 6N HCl at 110° C. for 24 hours. […]

[1] abbreviates: 1 μg per chamber per day x 9 days.
[2] abbreviates: 1 μg per chamber per day x 9 days, listed as CHO-derived rEBP.
[3] abbreviates: 10 μg per chamber per day x 9 days.
Setting [4] is: 10 μg per chamber per day x 9 days, listed as CHO-derived rEBP.

Turning to “CHO-EBP: recombinant EBP purified from supernatants of CHO cells transfected with the EBP gene; mainly EBP^1-150 and EBP^1-159”, the DNA under setting [1] is 232 ± 41 µg, the DNA entry under setting [2] is recorded as “no significant differences”, the DNA under setting [3] was 650 ± 163 µg and the DNA result under setting [4] is on record as “significantly increased”. Also, the HYDROXY-PROLINE is, setting by setting: under setting [1], 318.7 ± 31.7 µg; under setting [2], “no significant differences”; under setting [3], 354.5 ± 63.7 µg. The “TOTAL GYLCOSAMINO-GLYCANS” value is, setting by setting: under setting [1], 589.2 ± 68.4 µg; under setting [2], “significant increase”; under setting [3], 627.9 ± 92.4 µg; under setting [4], “significantly increased”. For the same substance, the “TOTAL PROTEIN” value under setting [1] is recorded as 3.88 ± 0.44 mg, the “TOTAL PROTEIN” value under setting [2] was “no significant differences”, the “TOTAL PROTEIN” value under setting [3] was 7.15 ± 1.23 mg and the “TOTAL PROTEIN” value under setting [4] is “significantly increased”. The “WET WEIGHT” value is reported as 238.0 ± 24.1 mg under setting [1], “significant increase” under setting [2], 398.2 ± 70.9 mg under setting [3] and “significantly increased” under setting [4]. Besides, the increase in hydroxyproline reads like this: (1 μg/chamber/day) 21%; (10 μg/chamber/day) 35%.
